Data reported in patent US20180237441A1, “Chemical Compounds” (GlaxoSmithKline Intellectual Property (No.2) Limited, priority 2015, published 2018).

biological target: T1, PERK (Homo sapiens, UniProt Q9NZJ5); test: PERK enzyme assay (HTRF); type: biochemical; conditions: 500 μM ATP; at least one experimental run; read-out: PERK Enzyme (500 μM ATP) IC50
T1 sequence (Q9NZJ5 30-1116): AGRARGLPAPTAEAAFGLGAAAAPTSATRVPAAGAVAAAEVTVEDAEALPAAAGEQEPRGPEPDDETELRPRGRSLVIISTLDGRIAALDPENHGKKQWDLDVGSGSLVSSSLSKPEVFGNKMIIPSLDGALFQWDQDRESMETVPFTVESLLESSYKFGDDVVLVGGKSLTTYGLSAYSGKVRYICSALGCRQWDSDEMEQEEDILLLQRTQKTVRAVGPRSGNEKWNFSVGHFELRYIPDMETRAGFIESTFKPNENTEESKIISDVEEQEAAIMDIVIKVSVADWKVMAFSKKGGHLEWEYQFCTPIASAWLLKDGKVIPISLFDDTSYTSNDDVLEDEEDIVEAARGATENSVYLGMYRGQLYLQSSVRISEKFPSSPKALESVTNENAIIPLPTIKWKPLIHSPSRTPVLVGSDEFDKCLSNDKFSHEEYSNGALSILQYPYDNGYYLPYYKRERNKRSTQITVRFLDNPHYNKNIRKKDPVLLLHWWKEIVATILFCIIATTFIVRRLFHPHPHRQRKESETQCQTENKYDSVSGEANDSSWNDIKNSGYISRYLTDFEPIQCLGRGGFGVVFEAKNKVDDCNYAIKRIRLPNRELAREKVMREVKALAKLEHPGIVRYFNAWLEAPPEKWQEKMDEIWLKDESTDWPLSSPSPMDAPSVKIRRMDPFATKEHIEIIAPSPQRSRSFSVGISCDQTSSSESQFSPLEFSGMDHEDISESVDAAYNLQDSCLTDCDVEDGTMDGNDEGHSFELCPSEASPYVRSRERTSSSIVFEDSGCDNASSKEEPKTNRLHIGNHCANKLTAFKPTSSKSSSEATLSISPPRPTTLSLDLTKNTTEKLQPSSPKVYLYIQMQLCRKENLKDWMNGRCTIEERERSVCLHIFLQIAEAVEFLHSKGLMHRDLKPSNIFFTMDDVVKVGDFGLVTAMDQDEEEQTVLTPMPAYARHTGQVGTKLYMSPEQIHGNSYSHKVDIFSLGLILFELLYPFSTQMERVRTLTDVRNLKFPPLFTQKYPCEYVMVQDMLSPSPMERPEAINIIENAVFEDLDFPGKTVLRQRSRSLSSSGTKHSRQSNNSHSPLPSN
Procedure, shortened: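 HTRF read-out after 2 h of EDTA-quenched reactions, detecting phospho-eIF2α with Eu/APC reagents, gave IC50 values. Reaction: 0.75 nM GST-PERK, 30–60 min compound pre-incubation (max 1% DMSO), then 60 min with 40 nM biotin-eIF2α and 500 μM ATP, HEPES pH 7.5 buffer.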

IC50	Structure (SMILES)
2.4 nM	CN1C(=O)N(c2ccc(-c3cn(C)c4ncnc(N)c34)c(F)c2)CC1c1ccc(F)c(F)c1 (single isomer, unassigned) [Example 115, 1-(4-(4-amino-7-methyl-7H-pyrrolo[2,3-d]pyrimidin-5-yl)-3-fluorophenyl)-4-(3,4-difluorophenyl)-3-methylimidazolidin-2-one]

same assay, conditions: PERK Enzyme (500 μM ATP) IC50; at least one experimental run; read-out: PERK Activity

Structure (SMILES)	IC50
Cc1nc(N)c2c(-c3ccc(N4CC(c5ccc(Cl)nc5)N(C)C4=O)cc3F)cn(C)c2n1 (stereo not shown) [Example 135, 1-(4-(4-amino-2,7-dimethyl-7H-pyrrolo[2,3-d]pyrimidin-5-yl)-3-fluorophenyl)-4-(6-chloropyridin-3-yl)-3-methylimidazolidin-2-one]	< 100 nM
CN1C(=O)N(c2ccc(-c3cn(C)c4ncnc(N)c34)c(F)c2)CC1c1cc(C2CC2)ccc1F (stereo not shown) [Example 49, 1-(4-(4-amino-7-methyl-7H-pyrrolo[2,3-d]pyrimidin-5-yl)-3-fluorophenyl)-4-(5-cyclopropyl-2-fluorophenyl)-3-methylimidazolidin-2-one]	100 to 1000 nM
CN1C(=O)N(c2ccc(-c3cn(C)c4ncnc(N)c34)c(F)c2)CC1c1ccc2c(c1)CCO2 (single isomer, unassigned) [Example 169, 1-(4-(4-amino-7-methyl-7H-pyrrolo[2,3-d]pyrimidin-5-yl)-3-fluorophenyl)-4-(2,3-dihydrobenzofuran-5-yl)-3-methylimidazolidin-2-one]	< 100 nM
CC(C)n1cc(-c2ccc(N3CC(c4cc(F)ccc4F)N(C)C3=O)cc2F)c2c(N)ncnc21 (single isomer, unassigned) [Example 86, 1-(4-(4-amino-7-isopropyl-7H-pyrrolo[2,3-d]pyrimidin-5-yl)-3-fluorophenyl)-4-(2,5-difluorophenyl)-3-methylimidazolidin-2-one]	100 to 1000 nM
CN1C(=O)N(c2ccc(-c3cn(C4CC4)c4ncnc(N)c34)c(F)c2)CC1c1cccc(Cl)c1 (single isomer, unassigned) [Example 153, 1-(4-(4-amino-7-cyclopropyl-7H-pyrrolo[2,3-d]pyrimidin-5-yl)-3-fluorophenyl)-4-(3-chlorophenyl)-3-methylimidazolidin-2-one]	100 to 1000 nM
CN1C(=O)N(c2ccc(-c3cn(C4CC4)c4ncnc(N)c34)c(F)c2)CC1c1cccc(F)c1 (single isomer, unassigned) [Example 125, 1-(4-(4-amino-7-cyclopropyl-7H-pyrrolo[2,3-d]pyrimidin-5-yl)-3-fluorophenyl)-4-(3-fluorophenyl)-3-methylimidazolidin-2-one]	< 100 nM
CCN1C(=O)N(c2ccc(-c3cn(C)c4nc(C)nc(N)c34)c(F)c2)CC1c1cc(F)ccc1F (single isomer, unassigned) [Example 44, 1-(4-(4-amino-2,7-dimethyl-7H-pyrrolo[2,3-d]pyrimidin-5-yl)-3-fluorophenyl)-4-(2,5-difluorophenyl)-3-ethylimidazolidin-2-one]	< 100 nM
CN1C(=O)N(c2ccc(-c3cn(C4CC4)c4ncnc(N)c34)c(F)c2)CC1c1cc(F)cc(F)c1F (single isomer, unassigned) [Example 143, 1-(4-(4-amino-7-cyclopropyl-7H-pyrrolo[2,3-d]pyrimidin-5-yl)-3-fluorophenyl)-3-methyl-4-(2,3,5-trifluorophenyl)imidazolidin-2-one]	100 to 1000 nM
CN1C(=O)N(c2ccc(-c3cn(C)c4ncnc(N)c34)c(F)c2)CC1c1cc(F)ccc1F (single isomer, unassigned) [Example 151, 1-(4-(4-amino-7-methyl-7H-pyrrolo[2,3-d]pyrimidin-5-yl)-3-fluorophenyl)-4-(2,5-difluorophenyl)-3-methylimidazolidin-2-one]	100 to 1000 nM
CN1C(=O)N(c2ccc(-c3cn(C)c4ncnc(N)c34)c(Cl)c2)CC1c1cc(F)cc(F)c1 (stereo not shown) [Example 121, 1-(4-(4-amino-7-methyl-7H-pyrrolo[2,3-d]pyrimidin-5-yl)-3-chlorophenyl)-4-(3,5-difluorophenyl)-3-methylimidazolidin-2-one]	< 100 nM
Cc1nc(N)c2c(-c3ccc(N4CC(c5cc(F)ccc5F)N(C)C4=O)cc3F)cn(C)c2n1 (stereo not shown) [Example 15, 1-(4-(4-amino-2,7-dimethyl-7H-pyrrolo[2,3-d]pyrimidin-5-yl)-3-fluorophenyl)-4-(2,5-difluorophenyl)-3-methylimidazolidin-2-one]	< 100 nM

Second part, the molecule after the results:

IC50	Structure (SMILES)
< 100 nM	CN1C(=O)N(c2ccc(-c3cn(C4CC4)c4ncnc(N)c34)c(F)c2)CC1c1ccc(F)c(F)c1 (single isomer, unassigned) [Example 116, 1-(4-(4-amino-7-cyclopropyl-7H-pyrrolo[2,3-d]pyrimidin-5-yl)-3-fluorophenyl)-4-(3,4-difluorophenyl)-3-methylimidazolidin-2-one]
< 100 nM	Cc1nc(N)c2c(-c3ccc(N4CC(c5ccc(F)c(F)c5)N(C)C4=O)cc3F)cn(C)c2n1 (single isomer, unassigned) [Example 80, 1-(4-(4-amino-2,7-dimethyl-7H-pyrrolo[2,3-d]pyrimidin-5-yl)-3-fluorophenyl)-4-(3,4-difluorophenyl)-3-methylimidazolidin-2-one]
100 to 1000 nM	Cn1cc(-c2ccc(N3CC(c4cc(F)cc(F)c4)CC3=O)nc2)c2c(N)ncnc21 (stereo not shown) [Example 32, 1-(5-(4-amino-7-methyl-7H-pyrrolo[2,3-d]pyrimidin-5-yl)pyridin-2-yl)-4-(3,5-difluorophenyl)pyrrolidin-2-one]
< 100 nM	COc1cccc(C2CN(c3ccc(-c4cn(C)c5ncnc(N)c45)c(F)c3)C(=O)N2C)c1 (single isomer, unassigned) [Example 103, 1-(4-(4-amino-7-methyl-7H-pyrrolo[2,3-d]pyrimidin-5-yl)-3-fluorophenyl)-4-(3-methoxyphenyl)-3-methylimidazolidin-2-one]
< 100 nM	Cc1cc(C)cc(C2CC(=O)N(c3ccc(-c4cn(C)c5ncnc(N)c45)c(F)c3)C2)c1 (stereo not shown) [Example 30, 1-(4-(4-amino-7-methyl-7H-pyrrolo[2,3-d]pyrimidin-5-yl)-3-fluorophenyl)-4-(3,5-dimethylphenyl)pyrrolidin-2-one]
100 to 1000 nM	COc1ccc(C2CN(c3ccc(-c4cn(C)c5nc(C)nc(N)c45)c(F)c3)C(=O)N2C)cc1 (stereo not shown) [Example 64, 1-(4-(4-amino-2,7-dimethyl-7H-pyrrolo[2,3-d]pyrimidin-5-yl)-3-fluorophenyl)-4-(4-methoxyphenyl)-3-methylimidazolidin-2-one]
100 to 1000 nM	CCN1C(=O)N(c2ccc(-c3cn(C)c4ncnc(N)c34)c(F)c2)CC1c1cccc(Cl)c1F (stereo not shown) [Example 22, 1-(4-(4-amino-7-methyl-7H-pyrrolo[2,3-d]pyrimidin-5-yl)-3-fluorophenyl)-4-(3-chloro-2-fluorophenyl)-3-ethylimidazolidin-2-one]
< 100 nM	CCN1C(=O)N(c2ccc(-c3cn(C)c4ncnc(N)c34)c(F)c2)CC1c1cc(F)cc(F)c1 (single isomer, unassigned) [Example 171, 1-(4-(4-amino-7-methyl-7H-pyrrolo[2,3-d]pyrimidin-5-yl)-3-fluorophenyl)-4-(3,5-difluorophenyl)-3-ethylimidazolidin-2-one]
< 100 nM	CN1C(=O)N(c2ccc(-c3cn(C)c4ncnc(N)c34)c(F)c2)CC1c1ccc(F)c(F)c1 (single isomer, unassigned) [Example 115, 1-(4-(4-amino-7-methyl-7H-pyrrolo[2,3-d]pyrimidin-5-yl)-3-fluorophenyl)-4-(3,4-difluorophenyl)-3-methylimidazolidin-2-one]
< 100 nM	CCN1C(=O)N(c2ccc(-c3cn(C4CC4)c4ncnc(N)c34)c(F)c2)CC1c1cc(F)cc(F)c1 (single isomer, unassigned) [Example 173, 1-(4-(4-amino-7-cyclopropyl-7H-pyrrolo[2,3-d]pyrimidin-5-yl)-3-fluorophenyl)-4-(3,5-difluorophenyl)-3-ethylimidazolidin-2-one]
